# Assay results taken from patent publication US11667628B2, “Compounds for imaging tau proteins that accumulate in brain” (National Institutes for Quantum and Radiological Science …, priority 2012, dated 2023).
# Columns and labels:
# [1] = target: Human T40 (the longest tau isoform formed with 441 amino acid residues) fibrils (Homo sapiens, UniProt P10636); experiment: In vitro fluorometric binding assay, recombinant T40 tau fibrils; conditions: for EC50: average±SE, concentration giving half of maximum fluorescence intensity; for λem (nm) T40: detection wavelength; for λem (nm) T40 / λex (nm) T40: compound bound to T40 polymers; for affinity to tau pathologies: fluorometric analysis using Aβ and tau filaments formed in a test tube; for λex (nm) T40: optimal excitation wavelength; for EC50 (Aβ)/EC50 (Tau): ratio of EC50 of Aβ40 fibrils to EC50 of T40 fibrils
# Human T40 (the longest tau isoform formed with 441 amino acid residues) fibrils, sequence (P10636 1-441 isoform P10636-8): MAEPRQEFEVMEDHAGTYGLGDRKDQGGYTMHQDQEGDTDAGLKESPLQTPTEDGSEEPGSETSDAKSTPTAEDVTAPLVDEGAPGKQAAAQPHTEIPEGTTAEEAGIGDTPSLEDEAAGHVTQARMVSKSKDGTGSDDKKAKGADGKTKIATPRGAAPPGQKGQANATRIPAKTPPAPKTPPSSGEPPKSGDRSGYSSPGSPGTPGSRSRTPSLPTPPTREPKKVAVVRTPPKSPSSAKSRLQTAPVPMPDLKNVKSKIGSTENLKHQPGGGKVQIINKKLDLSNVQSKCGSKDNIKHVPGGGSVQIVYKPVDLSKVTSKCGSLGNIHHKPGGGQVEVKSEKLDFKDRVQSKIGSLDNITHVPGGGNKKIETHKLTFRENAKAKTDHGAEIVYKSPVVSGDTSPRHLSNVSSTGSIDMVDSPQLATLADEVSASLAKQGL
# Aβ40 fibrils = Aβ40 fibrils (Homo sapiens, UniProt P05067); experiment: In vitro fluorometric binding assay, Aβ40 fibrils; conditions: for EC50: average±SE, concentration giving half of maximum fluorescence intensity; for λem (nm) Aβ40: detection wavelength; for λem (nm) Aβ40 / λex (nm) Aβ40: compound bound to Aβ40 polymers; for λex (nm) Aβ40: optimal excitation wavelength
# Aβ40 fibrils, sequence (P05067 672-711 limits assumed): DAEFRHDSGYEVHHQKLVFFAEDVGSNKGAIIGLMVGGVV
# [2] = literature by Zhuang et al.; cited from earlier work
# [3] = tested on: fibrous aggregate pathologies in AD grey matter; experiment: In vitro autoradiography, AD frontal cortex sections; format: binding, human; conditions: up to 1 nM radioligand
# [4] = tested on: NFTs in AD brain slices including the hippocampal formation; experiment: In vitro autoradiography of AD brains including hippocampal formation; format: binding, human; conditions: for total binding after addition of non-radioactive PBB5 (100 μM) and thioflavin-S (10 μM) / signals in hippocampus CAI region and pes hippocampi: 10 nM radioligand; for signals in hippocampus CAI region and pes hippocampi: AD patient's brain slice
# Procedure: 12 to 15-month-old non-Tg WT mice and PS19 mice were decapitated, and their brains were frozen and sliced into 20 μm-thick sections in a cryostat (HM560). The sections were placed on slide glass (Matsunami Glass), and kept at −80° C., until an analysis. Similarly, sections of the cerebral cortex were obtained from an AD patient. […] Non-specific bonding was detected in the presence of a 10 μMV non-radioactive ligand. Samples were reacted with [^11C]PBB2 or [^11C]PBB3, and were each washed twice, for 2 minutes, with an ice-cool Tris-HCl buffer solution containing 20% or 10% ethanol, and immersed in ice water for 10 seconds. After that, the sections were dried with warm air, and placed on imaging plates (Fuji Film). The imaging plates were scanned by a BAS500 system (Fuji Film), and autoradiograms were obtained (FIG. 6A).
# In order to compare the binding of [^11C]PBB3 and [^11C]PIB to areas inside the human brain where there were plenty of tau pathologies, in vitro autoradiograms were obtained using AD brain slices including the hippocampal formation.
# [5] = tested on: NFTs in the AD patient's hippocampus; experiment: In vivo PET imaging of humans; set-up: species or system human; conditions: same AD and normal control subjects
# From the text: 2 subjects with normal cognitive function ([…]; average 73.5 years old), and 3 AD patients ([…] years old; average 72 years old) were employed for this study. All the subjects were males, and all the AD patients were diagnosed in accordance with the standards of the National Institute of Neurological and Communicative Diseases and Stroke/Alzheimer's Disease and Related Disorders Association (NINCDS-ADRDA). The clinical dementia rating scale was 0 for both normal subjects, and ranged from 1 to 2 with the AD patients. Their cognitive function was evaluated by a mini-mental state examination (MMSE). […] During the [^11C]PBB-PET scanning, artery blood samples are obtained 10, 20, 30, 40, 50, 60, 70, 80, 90, 100, and 110 seconds after the injection, and 2, 2.5, 3, 4, 5, 6, 7, 8, 9, 10, 12, 15, 20, 25, 30, 40, 50, 60 and 70 minutes after the injection, and the amount of radioactivity in the plasma was measured. The radioactivity to match [^11C]PBB3 in unmetabolized plasma was measured by HPLC using the samples from 3, 10, 20, 30 and 60 minutes after the injection (Waters mBondapak C18 column, 7.8 mm×300 mm; acetonitrile/ammonium formate mobile phase, gradient elution=40/60 (0 minutes), 52/48 (6 minutes), 80/20 (7 minutes), 80/20 (8 minutes), 40/60 (9 minutes) and 40/60 (15 minutes); flow rate, 6 mL/minute). […]
compound,measurement,setting,value
"CN(C)c1ccc(/C=C/C=C/c2nc3ccccc3s2)cc1 [PBB1, 4-((1E,3E)-4-(benz[d]thiazole-2-yl)buta-1,3-dienyl)-N,N-dimethylaniline]",EC50,[1],402 ± 352 nM
same,λem (nm) T40,[1],565 nm
same,affinity to tau pathologies,[1],high affinity
same,λex (nm) T40,[1],515 nm
same,EC50 (Aβ)/EC50 (Tau),[1],10.2
same,EC50,Aβ40 fibrils,4110 nM
same,λem (nm) Aβ40,Aβ40 fibrils,565 nm
same,λex (nm) Aβ40,Aβ40 fibrils,440 nm
"CC[n+]1c(/C=C/C=C/c2ccc(N(C)C)cc2)sc2ccccc21 [PBB5, 2-((1E,3E)-4-(4-(dimethylamino)phenyl)buta-1,3-dienyl)-3-ethylbenzo[d] thiazole-3-ium]",EC50,[1],126 ± 67 nM
same,λem (nm) T40,[1],685 nm
same,affinity to tau pathologies,[1],high affinity
same,λex (nm) T40,[1],630 nm
same,EC50 (Aβ)/EC50 (Tau),[1],9.7
same,EC50,Aβ40 fibrils,1220 nM
same,λem (nm) Aβ40,Aβ40 fibrils,685 nm
same,λex (nm) Aβ40,Aβ40 fibrils,635 nm
thioflavin-S,passing the blood brain barrier,[2],difficulty passing the blood brain barrier
"Cc1ccc2c(c1)sc(-c1ccc(N(C)C)cc1)[n+]2C.[Cl-] [Thioflavin-T, reference compound]",λem (nm) T40,[1],485 nm
same,λex (nm) T40,[1],445 nm
same,λem (nm) Aβ40,Aβ40 fibrils,495 nm
same,λex (nm) Aβ40,Aβ40 fibrils,445 nm
"[11CH3]Nc1ccc(/C=C/C=C/c2nc3ccc(O)cc3s2)cc1 [[^11C]PBB2, 2-((1E,3E)-4-(4-([^11C]methylamino)phenyl)buta-1,3-dienyl)benz[d]thiazole-6-ol]","radiolabeling of fibrous aggregate pathologies, AD grey matters",[3],strongly radio-labeled
"[11CH3]Nc1ccc(-c2nc3ccc(O)cc3s2)cc1 [[^11C]PIB, reference compound]",total binding after addition of non-radioactive PBB5 (100 μM) and thioflavin-S (10 μM),[4],"clearly discarded, except for the white matter"
same,signals in hippocampus CAI region and pes hippocampi,[4],no [^11C]PIB signal was observed
same,PET signal in hippocampal formation of AD patient compared to NC,[5],did not change much
"[11CH3]Nc1ccc(/C=C/C=C/c2nc3ccc(O)cc3s2)cn1 [[^11C]PBB3, 2-((1E,3E)-4-(6-([^11C]methylamino)pyridine-3-yl)buta-1,3-dienyl)benz[d]thiazole-6-ol]","radiolabeling of fibrous aggregate pathologies, AD grey matters",[3],strongly radio-labeled
same,total binding after addition of non-radioactive PBB5 (100 μM) and thioflavin-S (10 μM),[4],clearly discarded
same,signals in hippocampus CAI region and pes hippocampi,[4],Strong [^11C]PBB3 signals were observed
same,binding in cortex region in the side of the collateral sulcus,[4]; compared to [^11C]PIB,more binding
same,PET signal in hippocampal formation of AD patient compared to NC,[5],increased
"O=C(O)c1cc(/C=C/c2ccc(/C=C/c3ccc(O)c(C(=O)O)c3)c(F)c2)ccc1O [FSB, (E,E)-1-fluoro-2,5-bis(3-hydroxycarbonyl-4-hydroxy)styrylbenzene]",passing the blood brain barrier,[2],difficulty passing the blood brain barrier
